Results taken from ChEMBL document CHEMBL4665865, “New series of isoxazole derivatives targeting EGFR-TK: Synthesis, molecular modeling and antitumor evaluation” (Bioorg Med Chem, 2020).
pIC50: −log10 of the molar value.

What was measured:
HCT-116 [1] = assay: Induction of cell cycle arrest in human HCT-116 cells assessed as cell debris at antiproliferative IC50 by PI staining based flow cytometric analysis (reference value: 1.42%); assay type: functional; settings: time 24 hrs
HCT-116 [2] = assay: Induction of cell cycle arrest in human HCT-116 cells assessed as aggregates at antiproliferative IC50 by PI staining based flow cytometric analysis (reference value: 1.61%); assay type: functional; settings: time 24 hrs
MCF7 [3] = assay: Induction of cell cycle arrest in human MCF7 cells assessed as cell debris at antiproliferative IC50 by PI staining based flow cytometric analysis (reference value: 1.63%); assay type: functional; settings: time 24 hrs
HepG2 [4] = assay: Induction of cell cycle arrest in human HepG2 cells assessed as cell debris at antiproliferative IC50 by PI staining based flow cytometric analysis (reference value: 1.52%); assay type: functional; settings: time 24 hrs
HepG2 [5] = assay: Induction of cell cycle arrest in human HepG2 cells assessed as aggregates at antiproliferative IC50 by PI staining based flow cytometric analysis (reference value: 1.52%); assay type: functional; settings: time 24 hrs
Tubulin (Homo sapiens) = Tubulin (Homo sapiens) (UniProt P68371+Q9H4B7+P0DPH7+P68366+Q13509+Q71U36+P04350+Q3ZCM7+P07437+P68363+Q9BQE3+Q6PEY2+Q13885+Q9BVA1+Q9BUF5); assay: Inhibition of tubulin polymerization (unknown origin) at 10 uM relative to control; assay type: protein-complex assay
[6] = target: Casein kinase II subunit alpha (Homo sapiens, UniProt P68400); assay: Inhibition of CK2 alpha (unknown origin) at 10 uM relative to control
Casein kinase II subunit alpha, sequence (P68400 whole entry, looked up): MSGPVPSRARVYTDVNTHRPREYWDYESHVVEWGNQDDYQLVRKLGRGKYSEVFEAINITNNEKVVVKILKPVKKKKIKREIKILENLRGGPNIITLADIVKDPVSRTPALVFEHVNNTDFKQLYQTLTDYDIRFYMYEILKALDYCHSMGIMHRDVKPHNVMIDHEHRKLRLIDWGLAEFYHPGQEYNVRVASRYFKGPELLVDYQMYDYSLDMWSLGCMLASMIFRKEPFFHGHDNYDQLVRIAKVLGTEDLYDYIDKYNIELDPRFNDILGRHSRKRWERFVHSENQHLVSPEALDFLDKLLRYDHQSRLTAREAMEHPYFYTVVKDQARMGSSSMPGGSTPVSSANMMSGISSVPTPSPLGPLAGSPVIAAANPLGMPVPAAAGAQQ

MCF7 [7] = assay: Induction of apoptosis in human MCF-7 cells assessed as decrease in Bcl-2 protein expression by Western blot analysis relative to untreated control; assay type: functional
HepG2 [8] = assay: Induction of apoptosis in human HepG2 cells assessed as decrease in Bcl-2 protein expression by Western blot analysis relative to untreated control; assay type: functional
HCT-116 [9] = assay: Induction of apoptosis in human HCT-116 cells assessed as increase in Bax protein expression by Western blot analysis relative to untreated control; assay type: functional
MCF7 [10] = assay: Induction of apoptosis in human MCF-7 cells assessed as increase in Bax protein expression by Western blot analysis relative to untreated control; assay type: functional
HepG2 [11] = assay: Induction of apoptosis in human HepG2 cells assessed as increase in Bax protein expression by Western blot analysis relative to untreated control; assay type: functional
HCT-116 [12] = assay: Induction of apoptosis in human HCT-116 cells assessed as increase in caspase-3 level after 24 hrs by Western blot analysis relative to untreated control; assay type: functional
HepG2 [13] = assay: Induction of apoptosis in human HepG2 cells assessed as increase in caspase-3 level after 24 hrs by Western blot analysis relative to untreated control; assay type: functional
MCF7 [14] = assay: Induction of apoptosis in human MCF7 cells assessed as necrotic cells at antiproliferative IC50 incubated for 24 hrs by annexin V FITC and propidium iodide staining based flow cytometry (reference value: 1.11 %); assay type: functional
HepG2 [15] = assay: Induction of apoptosis in human HepG2 cells assessed as necrotic cells at antiproliferative IC50 incubated for 24 hrs by annexin V FITC and propidium iodide staining based flow cytometry (reference value: 0.52 %); assay type: functional
MCF7 [16] = assay: Induction of apoptosis in human MCF7 cells assessed as late apoptotic cells at antiproliferative IC50 incubated for 24 hrs by annexin V FITC and propidium iodide staining based flow cytometry (reference value: 0.28 %); assay type: functional
HepG2 [17] = assay: Induction of apoptosis in human HepG2 cells assessed as late apoptotic cells at antiproliferative IC50 incubated for 24 hrs by annexin V FITC and propidium iodide staining based flow cytometry (reference value: 0.31 %); assay type: functional
HCT-116 [18] = assay: Induction of apoptosis in human HCT-116 cells assessed as early apoptotic cells at antiproliferative IC50 incubated for 24 hrs by annexin V FITC and propidium iodide staining based flow cytometry (reference value: 0.41 %); assay type: functional
MCF7 [19] = assay: Induction of apoptosis in human MCF7 cells assessed as early apoptotic cells at antiproliferative IC50 incubated for 24 hrs by annexin V FITC and propidium iodide staining based flow cytometry (reference value: 0.39 %); assay type: functional
HepG2 [20] = assay: Induction of apoptosis in human HepG2 cells assessed as early apoptotic cells at antiproliferative IC50 incubated for 24 hrs by annexin V FITC and propidium iodide staining based flow cytometry (reference value: 0.61 %); assay type: functional
HCT-116 [21] = assay: Induction of cell cycle arrest in human HCT-116 cells assessed as accumulation of cells at Pre-G1 phase at antiproliferative IC50 by PI staining based flow cytometric analysis (reference value: 1.19%); assay type: functional
HCT-116 [22] = assay: Induction of cell cycle arrest in human HCT-116 cells assessed as accumulation of cells at G0/G1 phase at antiproliferative IC50 by PI staining based flow cytometric analysis (reference value: 48.52%); assay type: functional
MCF7 [23] = assay: Induction of cell cycle arrest in human MCF7 cells assessed as accumulation of cells at Pre-G1 phase at antiproliferative IC50 by PI staining based flow cytometric analysis (reference value: 1.78%); assay type: functional
MCF7 [24] = assay: Induction of cell cycle arrest in human MCF7 cells assessed as accumulation of cells at S phase at antiproliferative IC50 by PI staining based flow cytometric analysis (reference value: 32.91%); assay type: functional
MCF7 [25] = assay: Induction of cell cycle arrest in human MCF7 cells assessed as accumulation of cells at G0/G1 phase at antiproliferative IC50 by PI staining based flow cytometric analysis (reference value: 56.14%); assay type: functional
HepG2 [26] = assay: Induction of cell cycle arrest in human HepG2 cells assessed as accumulation of cells at Pre-G1 phase at antiproliferative IC50 by PI staining based flow cytometric analysis (reference value: 1.44%); assay type: functional
HepG2 [27] = assay: Induction of cell cycle arrest in human HepG2 cells assessed as accumulation of cells at G0/G1 phase at antiproliferative IC50 by PI staining based flow cytometric analysis (reference value: 51.88%); assay type: functional
DNA topoisomerase 2-beta = DNA topoisomerase 2-beta (Homo sapiens, UniProt Q02880); assay: Inhibition of Topoisomerase II beta (unknown origin) relative to control
DNA topoisomerase 2-beta, sequence (Q02880 whole entry): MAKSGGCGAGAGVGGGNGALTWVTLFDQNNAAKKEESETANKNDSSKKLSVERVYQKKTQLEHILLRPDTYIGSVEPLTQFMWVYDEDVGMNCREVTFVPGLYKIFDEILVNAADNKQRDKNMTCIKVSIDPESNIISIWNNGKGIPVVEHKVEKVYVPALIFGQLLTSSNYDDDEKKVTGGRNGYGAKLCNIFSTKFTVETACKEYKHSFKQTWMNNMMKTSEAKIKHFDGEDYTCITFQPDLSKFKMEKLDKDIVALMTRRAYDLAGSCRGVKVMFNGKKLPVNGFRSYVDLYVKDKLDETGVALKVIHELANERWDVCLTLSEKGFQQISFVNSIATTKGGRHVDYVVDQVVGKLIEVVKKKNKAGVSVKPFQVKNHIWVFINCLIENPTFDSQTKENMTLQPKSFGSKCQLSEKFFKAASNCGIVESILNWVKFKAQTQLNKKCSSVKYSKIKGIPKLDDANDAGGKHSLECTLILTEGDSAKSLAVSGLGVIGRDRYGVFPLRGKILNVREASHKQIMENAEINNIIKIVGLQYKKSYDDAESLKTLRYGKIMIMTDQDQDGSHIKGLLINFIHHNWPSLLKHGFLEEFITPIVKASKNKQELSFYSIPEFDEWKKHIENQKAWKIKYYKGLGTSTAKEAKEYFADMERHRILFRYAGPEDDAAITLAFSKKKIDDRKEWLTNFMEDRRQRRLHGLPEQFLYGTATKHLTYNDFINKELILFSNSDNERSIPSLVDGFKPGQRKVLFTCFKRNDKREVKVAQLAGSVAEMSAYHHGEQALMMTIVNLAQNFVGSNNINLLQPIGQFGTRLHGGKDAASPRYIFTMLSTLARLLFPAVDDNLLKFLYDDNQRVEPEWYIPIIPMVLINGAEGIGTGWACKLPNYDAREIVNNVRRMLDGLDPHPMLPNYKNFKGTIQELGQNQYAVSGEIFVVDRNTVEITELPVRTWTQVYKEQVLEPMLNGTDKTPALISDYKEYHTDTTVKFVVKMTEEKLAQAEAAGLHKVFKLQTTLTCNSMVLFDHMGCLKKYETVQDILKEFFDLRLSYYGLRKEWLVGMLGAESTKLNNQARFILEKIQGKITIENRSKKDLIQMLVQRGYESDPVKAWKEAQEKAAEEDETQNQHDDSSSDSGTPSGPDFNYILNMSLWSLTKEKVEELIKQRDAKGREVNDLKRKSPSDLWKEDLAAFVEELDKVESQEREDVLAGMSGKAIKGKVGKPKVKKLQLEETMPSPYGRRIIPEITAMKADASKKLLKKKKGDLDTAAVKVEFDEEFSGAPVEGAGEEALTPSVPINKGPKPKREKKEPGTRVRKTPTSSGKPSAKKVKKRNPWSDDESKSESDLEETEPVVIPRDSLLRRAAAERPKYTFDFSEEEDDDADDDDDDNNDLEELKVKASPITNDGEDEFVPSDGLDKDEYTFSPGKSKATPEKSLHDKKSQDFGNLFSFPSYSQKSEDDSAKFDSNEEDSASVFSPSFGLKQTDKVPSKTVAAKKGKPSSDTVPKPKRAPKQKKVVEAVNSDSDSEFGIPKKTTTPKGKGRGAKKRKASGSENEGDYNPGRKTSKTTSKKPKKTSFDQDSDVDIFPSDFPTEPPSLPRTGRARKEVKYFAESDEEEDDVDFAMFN

[28] = target: Vascular endothelial growth factor receptor 2 (Homo sapiens, UniProt P35968)
Vascular endothelial growth factor receptor 2, sequence (P35968 whole entry): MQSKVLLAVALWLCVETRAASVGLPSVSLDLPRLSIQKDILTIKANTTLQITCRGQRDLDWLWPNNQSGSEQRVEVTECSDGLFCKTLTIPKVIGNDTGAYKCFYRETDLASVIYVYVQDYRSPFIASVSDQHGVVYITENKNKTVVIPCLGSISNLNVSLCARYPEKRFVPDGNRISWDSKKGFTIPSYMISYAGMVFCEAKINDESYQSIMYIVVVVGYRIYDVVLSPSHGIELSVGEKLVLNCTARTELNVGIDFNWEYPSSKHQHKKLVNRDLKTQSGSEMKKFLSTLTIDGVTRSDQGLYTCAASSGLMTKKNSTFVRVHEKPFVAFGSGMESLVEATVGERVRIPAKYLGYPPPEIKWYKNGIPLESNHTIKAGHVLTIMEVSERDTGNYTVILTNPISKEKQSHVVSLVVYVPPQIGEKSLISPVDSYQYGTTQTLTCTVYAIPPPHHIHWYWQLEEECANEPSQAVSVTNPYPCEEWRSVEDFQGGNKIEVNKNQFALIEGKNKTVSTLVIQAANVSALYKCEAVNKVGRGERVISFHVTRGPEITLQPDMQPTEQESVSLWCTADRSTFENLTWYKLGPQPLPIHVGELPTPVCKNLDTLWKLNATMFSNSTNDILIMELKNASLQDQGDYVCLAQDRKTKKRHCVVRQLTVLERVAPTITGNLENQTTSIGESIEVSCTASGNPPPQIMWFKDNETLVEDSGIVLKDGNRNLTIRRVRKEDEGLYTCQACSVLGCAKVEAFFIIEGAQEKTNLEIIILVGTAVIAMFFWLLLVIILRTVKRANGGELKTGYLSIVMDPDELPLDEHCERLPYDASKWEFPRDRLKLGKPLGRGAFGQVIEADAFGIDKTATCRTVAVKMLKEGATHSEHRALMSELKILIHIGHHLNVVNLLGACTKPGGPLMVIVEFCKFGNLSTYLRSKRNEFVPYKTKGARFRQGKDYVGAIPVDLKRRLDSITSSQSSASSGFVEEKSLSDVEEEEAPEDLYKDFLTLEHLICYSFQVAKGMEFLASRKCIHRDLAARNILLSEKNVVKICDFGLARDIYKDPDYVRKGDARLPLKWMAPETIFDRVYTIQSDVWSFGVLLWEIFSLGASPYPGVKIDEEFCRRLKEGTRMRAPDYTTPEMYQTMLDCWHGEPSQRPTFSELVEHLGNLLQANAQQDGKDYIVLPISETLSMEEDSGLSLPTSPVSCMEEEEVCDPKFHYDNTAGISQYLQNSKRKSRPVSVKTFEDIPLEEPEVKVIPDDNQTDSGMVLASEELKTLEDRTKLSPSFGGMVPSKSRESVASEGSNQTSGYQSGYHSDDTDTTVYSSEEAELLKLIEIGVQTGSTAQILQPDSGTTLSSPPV
Description: Inhibition of VEGFR-2 (unknown origin) relative to control

WI-38 = assay: Cytotoxicity against human WI38 cells assessed as reduction in cell viability by MTT assay; assay type: cell-based
WISH = assay: Cytotoxicity against human WISH cells assessed as reduction in cell viability by MTT assay; assay type: cell-based
MCF7 [29] = assay: Antitumor activity against human MCF7 cells assessed as inhibition of cell viability by MTT assay; assay type: functional, cell-based
HCT-116 [30] = assay: Induction of cell cycle arrest in human HCT-116 cells assessed as accumulation of cells at S phase at antiproliferative IC50 by PI staining based flow cytometric analysis (reference value: 35.61%); assay type: functional
HCT-116 [31] = assay: Induction of cell cycle arrest in human HCT-116 cells assessed as accumulation of cells at G2/M phase at antiproliferative IC50 by PI staining based flow cytometric analysis (reference value: 15.87%); assay type: functional
HepG2 [32] = assay: Induction of cell cycle arrest in human HepG2 cells assessed as accumulation of cells at S phase at antiproliferative IC50 by PI staining based flow cytometric analysis (reference value: 34.03%); assay type: functional

Cc1cc(NC2=NC(=O)/C(=C\c3c4ccccc4cc4ccccc34)S2)no1 was tested, and the Activity (HCT-116 [1]) was 1.92%, the Activity (HCT-116 [2]) was 1.74% and the Activity (MCF7 [3]) was 2.08%. It also gave an Activity (HepG2 [4]) of 2.18%, an Activity (HepG2 [5]) of 1.55% and an inhibition (Tubulin (Homo sapiens)) of 57.7%. The inhibition [6] was 76.3%, the “fold change (FC)” value (MCF7 [7]) was 0.62 and the “fold change (FC)” value (HepG2 [8]) was 0.56. For the same compound, the “fold change (FC)” value (HCT-116 [9]) was 6.9, the “fold change (FC)” value (MCF7 [10]) was 7 and the “fold change (FC)” value (HepG2 [11]) was 4.1. The “fold change (FC)” value (HCT-116 [12]) was 14.2, the “fold change (FC)” value (HepG2 [13]) was 5.4 and the Activity (MCF7 [14]) was 2.31%. For the same compound, the Activity (HepG2 [15]) was 1.77%, the Activity (MCF7 [16]) was 7.82% and the Activity (HepG2 [17]) was 8%. It also gave an Activity (HCT-116 [18]) of 5.23%, an Activity (MCF7 [19]) of 6.28% and an Activity (HepG2 [20]) of 3.51%. The Activity (HCT-116 [21]) was 22.69%, the Activity (HCT-116 [22]) was 29.67% and the Activity (MCF7 [23]) was 16.41%. It also gave an Activity (MCF7 [24]) of 26.41%, an Activity (MCF7 [25]) of 44.25% and an Activity (HepG2 [26]) of 13.3%. It also gave an Activity (HepG2 [27]) of 38.11%, a pIC50 (DNA topoisomerase 2-beta) of 6.89 and a pIC50 [28] of 7.06. It also gave a pIC50 (WI-38) of 4.41, a pIC50 (WISH) of 4.27 and a pIC50 (MCF7 [29]) of 5.20. For the same compound, the Activity (HCT-116 [30]) was 27.44%, the Activity (HCT-116 [31]) was 42.89% and the Activity (HepG2 [32]) was 24.96%.
